Reference: paper PMC9252148 (IUCrJ, 2022)

Key:
LCMV NP-exo = biological target: T1, LCMV NP-exo (Lymphocytic choriomeningitis virus (strain Armstrong), UniProt P09992)
T1 construct: gene N

MOPV NP-exo = biological target: T2, MOPV NP-exo (Mammarenavirus mopeiaense, UniProt P19239); conditions: 5 mM MnCl2, pH 8.0, 310 K, 5 min, 0.25 µM enzyme, 1.5 µM HP4 RNA; Mn2+-dependent; acts by metal-ion chelation
T2 construct: gene N
T2 sequence (P19239 365-570 limits assumed): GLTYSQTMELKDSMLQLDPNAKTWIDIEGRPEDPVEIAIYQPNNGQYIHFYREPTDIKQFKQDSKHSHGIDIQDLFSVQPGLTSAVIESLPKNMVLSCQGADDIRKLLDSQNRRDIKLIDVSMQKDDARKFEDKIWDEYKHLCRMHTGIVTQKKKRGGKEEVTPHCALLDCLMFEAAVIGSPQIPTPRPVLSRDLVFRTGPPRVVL

T1 sequence (P09992 357-558 limits assumed): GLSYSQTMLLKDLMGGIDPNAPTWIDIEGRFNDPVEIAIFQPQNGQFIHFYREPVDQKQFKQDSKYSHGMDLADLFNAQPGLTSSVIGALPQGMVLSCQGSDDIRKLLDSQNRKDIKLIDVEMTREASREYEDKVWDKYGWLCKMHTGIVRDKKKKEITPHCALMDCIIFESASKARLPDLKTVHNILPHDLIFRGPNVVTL

alendronate showed an IC50 (LCMV NP-exo) of 68.6 ± 4.2 µM and an IC50 (MOPV NP-exo) of 65.9 ± 1.7 µM.
